In patent US10030020B2, “Spirocycle compounds and methods of making and using same” (Abide Therapeutics, Inc., priority 2016, dated 2018):
Where two headings read alike, the source gives them in different places.

Legend:
MAGL [1] = molecular target: T1, MAGL (Mus musculus (Mouse), UniProt O35678); assay: Mouse brain proteomes from inhibitor treated mice (oral gavage, sacrificed 4 h after administration, ABPP analysis); format: in vivo, mouse (C57Bl/6J); conditions: 5 mg/kg oral gavage
Procedure, shortened: (§1)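 Compounds were given by oral gavage to wild-type C57Bl/6J mice in a vehicle such as PEG400/Ethanol/PBS (7/2/1). Animals were sacrificed 4 h after dosing, and brain proteomes were prepared and analyzed by established ABPP methods. Values are % inhibition at 5 mg/kg.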

FAAH [2] = molecular target: T2, FAAH (Mus musculus (Mouse), UniProt O08914); assay: In vitro competitive activity-based protein profiling (mouse brain membrane fraction or cell lysates), FAAH band; format: biochemical; conditions: for inhibition at 1 µM: read-out: FAAH % Inh 1 μM (mouse)
Procedure, shortened: (§2)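 Residual hydrolase activity was measured as gel band fluorescence after FP-Rh labelling (30 min, 37° C) of proteomes pretreated 30 min at 37° C with inhibitor.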

FAAH [3] = molecular target: T2, FAAH; assay: Mouse brain proteomes from inhibitor treated mice (oral gavage, sacrificed 4 h after administration, ABPP analysis), FAAH; format: in vivo, mouse (C57Bl/6J); conditions: 5 mg/kg oral gavage
Procedure, shortened: as §1

ABHD6 [4] = molecular target: T3, ABHD6 (Mus musculus (Mouse), UniProt Q8R2Y0); assay: Mouse brain proteomes from inhibitor treated mice (oral gavage, sacrificed 4 h after administration, ABPP analysis), ABHD6; format: in vivo, mouse (C57Bl/6J); conditions: 5 mg/kg oral gavage
Procedure, shortened: as §1

MAGL [5] = molecular target: MAGL (Homo sapiens (Human), UniProt Q99685); assay: In vitro competitive activity-based protein profiling (human prefrontal cortex or cell membrane fractions; hMAGL expressed in HEK293T cells); format: biochemical
Procedure, shortened: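 Human prefrontal cortex or cell membrane proteomes (1.0-2.0 mg/mL), or lysates of HEK293T cells expressing hMAGL diluted into mock proteome, preincubated with inhibitor 30 min at 37° C. FP-Rh or JW912 probe then added for 30 min at room temperature. Residual labeling resolved by SDS-PAGE.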

ABHD6 [6] = molecular target: T3, ABHD6; assay: In vitro competitive activity-based protein profiling (mouse brain membrane fraction or cell lysates), ABHD6 band; format: biochemical; conditions: for inhibition at 1 µM: read-out: ABHD6 % Inh 1 μM (mouse)
Procedure, shortened: as §2

MAGL [7] = molecular target: T1, MAGL; assay: In vitro competitive activity-based protein profiling (mouse brain membrane fraction or cell lysates), MAGL band; format: biochemical; conditions: for inhibition at 1 µM: read-out: MAGL % Inh 1 μM (mouse)
Method: In Vitro Competitive Activity-Based Protein Profiling.
Proteomes (mouse brain membrane fraction or cell lysates) (50 μL, 1.0 mg/mL total protein concentration) were preincubated with varying concentrations of inhibitors at 37° C. After 30 min, FP—Rh (1.0 μL, 50 μM in DMSO) was added and the mixture was incubated for another 30 min at 37° C. Reactions were quenched with SDS loading buffer (50 μL-4×) and run on SDS-PAGE.

[8] = mouse proteome, competitive ABPP
[9] = human proteome, competitive ABPP

T2 sequence (O08914 whole entry): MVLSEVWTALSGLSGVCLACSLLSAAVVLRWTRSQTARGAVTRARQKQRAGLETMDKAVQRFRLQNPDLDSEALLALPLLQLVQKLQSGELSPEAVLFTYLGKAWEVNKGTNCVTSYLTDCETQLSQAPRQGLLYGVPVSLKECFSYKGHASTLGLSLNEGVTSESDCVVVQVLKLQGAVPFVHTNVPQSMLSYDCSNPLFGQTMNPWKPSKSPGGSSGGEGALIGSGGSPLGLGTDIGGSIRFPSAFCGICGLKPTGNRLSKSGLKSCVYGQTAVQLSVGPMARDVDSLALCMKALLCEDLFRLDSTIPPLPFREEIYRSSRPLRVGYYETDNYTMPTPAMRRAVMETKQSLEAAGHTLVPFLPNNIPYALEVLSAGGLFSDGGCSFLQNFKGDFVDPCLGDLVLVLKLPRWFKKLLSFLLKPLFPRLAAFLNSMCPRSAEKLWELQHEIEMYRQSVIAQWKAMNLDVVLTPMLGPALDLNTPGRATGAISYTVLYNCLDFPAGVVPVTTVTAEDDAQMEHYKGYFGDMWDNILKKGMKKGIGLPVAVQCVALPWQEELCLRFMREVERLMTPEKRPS
T1 sequence (O35678 whole entry): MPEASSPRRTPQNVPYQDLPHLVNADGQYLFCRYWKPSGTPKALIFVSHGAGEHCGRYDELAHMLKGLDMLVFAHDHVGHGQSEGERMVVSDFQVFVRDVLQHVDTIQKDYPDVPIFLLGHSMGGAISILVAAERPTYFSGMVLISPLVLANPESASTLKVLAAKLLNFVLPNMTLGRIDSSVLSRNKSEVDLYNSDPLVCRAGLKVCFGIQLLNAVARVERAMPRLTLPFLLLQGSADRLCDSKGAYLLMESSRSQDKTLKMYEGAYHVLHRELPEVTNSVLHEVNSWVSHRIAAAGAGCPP
Sequence of MAGL (Homo sapiens (Human), UniProt Q99685) (Q99685 whole entry): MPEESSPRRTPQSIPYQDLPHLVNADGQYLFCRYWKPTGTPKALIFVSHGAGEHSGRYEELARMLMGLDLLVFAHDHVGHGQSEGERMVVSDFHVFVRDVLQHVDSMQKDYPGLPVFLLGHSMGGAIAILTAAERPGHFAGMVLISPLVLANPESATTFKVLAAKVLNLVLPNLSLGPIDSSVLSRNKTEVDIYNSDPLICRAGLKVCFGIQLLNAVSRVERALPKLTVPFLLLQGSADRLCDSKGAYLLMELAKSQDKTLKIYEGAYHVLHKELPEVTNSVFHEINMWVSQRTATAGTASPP
T3 sequence (Q8R2Y0 whole entry): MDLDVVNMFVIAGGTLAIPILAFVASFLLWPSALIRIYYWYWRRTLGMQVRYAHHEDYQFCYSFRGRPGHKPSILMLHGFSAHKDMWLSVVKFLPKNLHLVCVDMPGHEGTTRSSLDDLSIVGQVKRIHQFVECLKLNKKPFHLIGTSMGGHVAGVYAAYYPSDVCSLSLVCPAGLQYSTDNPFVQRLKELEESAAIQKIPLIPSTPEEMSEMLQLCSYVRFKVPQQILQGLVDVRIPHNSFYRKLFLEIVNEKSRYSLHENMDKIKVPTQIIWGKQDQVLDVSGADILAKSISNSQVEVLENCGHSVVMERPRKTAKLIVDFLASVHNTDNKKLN

MAGL % Inh 5 mg/kg (mouse) (MAGL [1])	inhibition at 1 µM (FAAH [2]; mouse)	FAAH % Inh 5 mg/kg (mouse) (FAAH [3])	ABHD6 % Inh 5 mg/kg (mouse) (ABHD6 [4])	IC50 (MAGL [5]; human)	inhibition at 1 µM (ABHD6 [6]; mouse)	inhibition at 1 µM (MAGL [7]; mouse)	inhibition at 1 µM (FAAH [2]; mouse proteome)	IC50 (FAAH [2]; [8])	IC50 (MAGL [5]; [9])	inhibition at 1 µM (ABHD6 [6]; mouse proteome)	IC50 (ABHD6 [6]; [8])	inhibition at 1 µM (MAGL [7]; mouse proteome)	IC50 (MAGL [7]; [8])	IC50 (FAAH [2]; mouse)	IC50 (ABHD6 [6]; mouse)	IC50 (MAGL [7]; mouse)	Compound
### (### is ≥75%)	< 25%	# (# is <25%)	# (# is <25%)	< 100 nM	< 25%	> 75%	–	–	–	–	–	–	–	–	–	–	O=C(O)C1CCN(c2cc(OC(F)(F)F)ccc2CN2CCCC23CCN(C(=O)OC(C(F)(F)F)C(F)(F)F)CC3)CC1 [Example 248]
### (### is ≥75%)	–	# (# is <25%)	### (### is ≥75%)	–	–	–	< 25%	> 1000 nM	< 100 nM	≥ 75%	100 to 1000 nM	> 75%	< 100 nM	–	–	–	O=C(O)C1CCN(c2cc(C(F)(F)F)ccc2CN2CCC3(CCN(C(=O)OC(C(F)(F)F)C(F)(F)F)CC3)C2)CC1 [Example 119, 1-(2-((8-(((1,1,1,3,3,3-Hexafluoropropan-2-yl)oxy)carbonyl)-2,8-diazaspiro[4.5]decan-2-yl)methyl)-5-(trifluoromethyl)phenyl)piperidine-4-carboxylic acid]
### (### is ≥75%)	< 25%	# (# is <25%)	# (# is <25%)	< 100 nM	< 25%	> 75%	–	–	–	–	–	–	–	–	–	–	O=C(O)C1CCN(Cc2cc(Cl)cc(CN3CCCC34CCN(C(=O)OC(C(F)(F)F)C(F)(F)F)CC4)c2)C1 (centres unmarked) [Example 272]
### (### is ≥75%)	< 25%	# (# is <25%)	# (# is <25%)	< 100 nM	< 25%	> 75%	–	–	–	–	–	–	–	–	–	–	O=C(O)C1CCN(c2cc(S(F)(F)(F)(F)F)ccc2CN2CCCC23CCN(C(=O)OC(C(F)(F)F)C(F)(F)F)CC3)CC1 [Example 240]
### (### is ≥75%)	< 25%	# (# is <25%)	# (# is <25%)	< 100 nM	< 25%	> 75%	–	–	–	–	–	–	–	> 1000 nM	> 1000 nM	100 to 1000 nM	O=C(O)C1CCN(Cc2cc(C(F)(F)F)ccc2CN2CCCC23CCN(C(=O)OC(C(F)(F)F)C(F)(F)F)CC3)CC1 [Example 238]

Compound	MAGL % Inh 5 mg/kg (mouse) (MAGL [1])	inhibition at 1 µM (FAAH [2]; mouse)	FAAH % Inh 5 mg/kg (mouse) (FAAH [3])	ABHD6 % Inh 5 mg/kg (mouse) (ABHD6 [4])	IC50 (MAGL [5]; human)	inhibition at 1 µM (ABHD6 [6]; mouse)	inhibition at 1 µM (MAGL [7]; mouse)	inhibition at 1 µM (FAAH [2]; mouse proteome)	IC50 (FAAH [2]; [8])	IC50 (MAGL [5]; [9])	inhibition at 1 µM (ABHD6 [6]; mouse proteome)	IC50 (ABHD6 [6]; [8])	inhibition at 1 µM (MAGL [7]; mouse proteome)	IC50 (MAGL [7]; [8])	IC50 (FAAH [2]; mouse)	IC50 (ABHD6 [6]; mouse)	IC50 (MAGL [7]; mouse)
O=C(O)C1CCN(Cc2cc(C(F)(F)F)ccc2CN2CCCC23CCN(C(=O)OC(C(F)(F)F)C(F)(F)F)CC3)C1 (centres unmarked) [Example 262]	## (## is equal to or greater than 25% but less than 75%)	< 25%	# (# is <25%)	# (# is <25%)	< 100 nM	< 25%	> 75%	–	–	–	–	–	–	–	–	–	–
O=C(O)C1COCCN1c1cc(CN2CCCC23CCN(C(=O)OC(C(F)(F)F)C(F)(F)F)CC3)cc(C(F)(F)F)c1 (centres unmarked) [Example 200]	## (## is equal to or greater than 25% but less than 75%)	–	# (# is <25%)	# (# is <25%)	–	–	–	< 25%	–	< 100 nM	< 25%	–	> 75%	–	–	–	–
O=C(O)C1CCN(Cc2cc(CN3CCCC34CCN(C(=O)OC(C(F)(F)F)C(F)(F)F)CC4)cc(OC(F)(F)F)c2)CC1 [Example 269]	## (## is equal to or greater than 25% but less than 75%)	< 25%	# (# is <25%)	# (# is <25%)	< 100 nM	< 25%	> 75%	–	–	–	–	–	–	–	–	–	–
